According to ChEMBL document CHEMBL4420079, “Methylamine derivatives as lysysl oxidase inhibitors for the treatment of cancer” (2017):
Calls of active or inactive are those of the source. The calls are words filed in the database; no cut-off is given here.

Columns and labels:
[1] = molecular target: T1, Protein-lysine 6-oxidase (Homo sapiens) (UniProt P28300); conditions: MDA-MB-231, 1 mM
T1 sequence (whole entry): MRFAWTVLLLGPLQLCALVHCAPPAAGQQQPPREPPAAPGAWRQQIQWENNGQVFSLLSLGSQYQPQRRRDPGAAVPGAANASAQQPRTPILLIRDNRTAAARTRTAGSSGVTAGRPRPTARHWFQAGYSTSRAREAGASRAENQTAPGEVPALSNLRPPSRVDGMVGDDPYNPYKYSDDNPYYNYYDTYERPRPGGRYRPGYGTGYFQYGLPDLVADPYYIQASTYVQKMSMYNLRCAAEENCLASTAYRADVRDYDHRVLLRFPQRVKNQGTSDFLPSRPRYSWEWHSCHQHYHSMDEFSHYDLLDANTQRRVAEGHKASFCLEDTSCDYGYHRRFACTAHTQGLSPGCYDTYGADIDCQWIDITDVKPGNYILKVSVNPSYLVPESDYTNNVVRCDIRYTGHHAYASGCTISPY

[2] = Inhibition of pig skin LOX incubated for 45 mins by Amplex red dye based and HRP coupled assay; set-up: species or system Sus scrofa

Row | SMILES | inhibition [1] | IC50 [2] [nM]
1 | N#CCCN | Active | 
2 | NCc1ncc(S(=O)(=O)c2ccc3ccccc3c2)s1 |  | 1400
